# Where two headings read alike, the source gives them in different places.
# Tests used:
# [1] = Dynamic vapor sorption (DVS) hygroscopicity; format: physicochemical
# Experimental: The water vapor sorption/desorption data of the samples were collected on a dynamic vapor sorption instrument (proUmid GmbH & Co. KG, Germany). Approximately 50-70 mg of sample was placed in a sample pan previously tared and the weight of the sample was measured accurately.
# [2] = Short-term physical stability of anhydrous crystal forms (40° C./75% RH, open, 1 day; XRPD); format: physicochemical
# Source text: In addition to the mesylate crystalline form I, the other anhydrous crystalline forms were stable under high humidity conditions.
# [3] = Solubility analysis in biological solvents (SGF, FaSSIF, FeSSIF) and water, with pH and XRPD of residual solid; format: physicochemical; conditions: for Solubility: 37° C., target 5 mg/mL
# Experimental: (§1) HPLC analysis was performed by using an Agilent HPLC 1260 series instrument and the HPLC methods used for solubility and stability determinations were shown in Tables 33 and 34, respectively.
# [4] = Solid state stability at 60° C. (closed) and 40° C./75% RH (open), XRPD and HPLC purity; format: physicochemical
# Experimental: (closed) and 40° C./75 RH (open) for 14 days, XRPD analysis and purity analysis were performed at various points of time, and solid-state stability was evaluated.
# as §1
# [5] = Mechanical grinding stability (XRPD); format: physicochemical; conditions: ground in a mortar 5 minutes, samples at 2 and 5 minutes
# [6] = Tableting stability (40 Mpa, 1 min; XRPD); format: physicochemical
# [7] = Polymorph screening: evaporating crystallization; format: physicochemical; conditions: for Results (quick volatilization −1 h) Wet sample: saturated solution (50° C. to room temperature)
# [8] = Polymorph screening: cooling crystallization; format: physicochemical; conditions: for solid obtained by cooling crystallization: solution in methanol
# Experimental: It was filtered through a microfilm into clear vials. The solution was divided into two equal parts, one part of filtrate was placed in a refrigerator (5° C.) for rapid cooling, and the other part of filtrate was placed in a heating metal module with a power off and naturally cooled to room temperature.
# [9] = Polymorph screening: antisolvent precipitation; format: physicochemical; conditions: for Results Wet sample: Vsolvent/Vanti-solvent 1/10
# Experimental: An anti-solvent was gradually added thereto until a solid precipitated or a solvent volume of was added.
# [10] = Polymorph screening: trituration for 3 or 7 days at room temperature or 50° C.; format: physicochemical
# physchem = conditions: water, thermodynamic from solid
# [11] = 60° C./closed and 40° C./75% RH, 7 days
smiles,measurement,setting,value
Cc1c(C#Cc2cnc3ccc(N4CCC(O)CC4)nn23)cccc1C(=O)Nc1cc(Cl)cc(C(F)(F)F)c1 [Fumarate crystalline form I],crystalline form after DVS analysis (XRPD),[1],remained unchanged
same,hygroscopicity (DVS),[1],substantially non-hygroscopic
same,DVS The weight gains by vapor sorption %,[1]; 80% RH,"0.2, 0.2%"
same,DVS The weight gains by vapor sorption %,[1]; 90% RH,"0.2, 0.2%"
same,DVS The weight gains by vapor sorption %,"[1]; 90% RH, listed as fumarate crystalline form I",0.2/0.2%
same,hygroscopicity (DVS),[1]; listed as fumarate crystalline form I,almost non-hygroscopic
same,hygroscopicity (DVS),[1]; listed as fumarate form crystalline I,almost non-hygroscopic
same,XPRD Results after short-term physical stability,[2],unchanged
same,pH in solubility analysis,"[3]; FaSSIF (medium pH 6.5), 0.5 h",6.3
same,pH in solubility analysis,"[3]; FaSSIF (medium pH 6.5), 2 h",6.2
same,pH in solubility analysis,"[3]; FaSSIF (medium pH 6.5), 24 h",6.0
same,XRPD of residual solid in solubility analysis,"[3]; FaSSIF, 0.5 h",unchanged
same,Solubility,"[3]; FaSSIF, 0.5 h",0.011 mg/mL
same,Solubility,"[3]; FaSSIF, 0.5 h, listed as fumarate crystalline form I",0.011/0.011/ mg/mL
same,Solubility,"[3]; FaSSIF, 2 h",0.011 mg/mL
same,Solubility,"[3]; FaSSIF, 2 h, listed as fumarate crystalline form I",0.011/0.011/ mg/mL
same,XRPD of residual solid in solubility analysis,"[3]; FaSSIF, 24 h",unchanged
same,Solubility,"[3]; FaSSIF, 24 h",0.022 mg/mL
same,pH in solubility analysis,"[3]; FeSSIF (medium pH 5.0), 0.5 h",5.0
same,pH in solubility analysis,"[3]; FeSSIF (medium pH 5.0), 2 h",5.0
same,pH in solubility analysis,"[3]; FeSSIF (medium pH 5.0), 24 h",5.0
same,Solubility,"[3]; FeSSIF, 0.5 h",0.197 mg/mL
same,Solubility,"[3]; FeSSIF, 0.5 h, listed as fumarate crystalline form I",0.197 mg/mL
same,Solubility,"[3]; FeSSIF, 2 h",0.175 mg/mL
same,Solubility,"[3]; FeSSIF, 2 h, listed as fumarate crystalline form I",0.175 mg/mL
same,XRPD of residual solid in solubility analysis,"[3]; FeSSIF, 24 h",unchanged
same,Solubility,"[3]; FeSSIF, 24 h",0.530 mg/mL
same,pH in solubility analysis,"[3]; SGF (medium pH 1.2), 0.5 h",1.3
same,pH in solubility analysis,"[3]; SGF (medium pH 1.2), 2 h",1.4
same,pH in solubility analysis,"[3]; SGF (medium pH 1.2), 24 h",1.3
same,XRPD of residual solid in solubility analysis,"[3]; SGF, 0.5 h",unchanged
same,Solubility,"[3]; SGF, 0.5 h",<LOD
same,Solubility,"[3]; SGF, 0.5 h, listed as fumarate crystalline form I",<LOD/<LOD/
same,Solubility,"[3]; SGF, 2 h",<LOD
same,Solubility,"[3]; SGF, 2 h, listed as fumarate crystalline form I",<LOD/<LOD/
same,XRPD of residual solid in solubility analysis,"[3]; SGF, 24 h",unchanged
same,Solubility,"[3]; SGF, 24 h",<LOD
same,Solid form of residual solids in solubility analysis,"[3]; summary over water, SGF, FaSSIF, FeSSIF",remained unchanged
same,pH in solubility analysis,"[3]; water (medium pH 6.6), 0.5 h",4.6
same,pH in solubility analysis,"[3]; water (medium pH 6.6), 2 h",4.3
same,pH in solubility analysis,"[3]; water (medium pH 6.6), 24 h",4.2
same,XRPD of residual solid in solubility analysis,"[3]; water, 0.5 h",unchanged
same,Solubility,"[3]; water, 0.5 h",<LOD
same,Solubility,"[3]; water, 0.5 h, listed as fumarate crystalline form I",<LOD/<LOD/
same,Solubility,"[3]; water, 2 h",<LOD
same,Solubility,"[3]; water, 2 h, listed as fumarate crystalline form I",<LOD/<LOD/
same,XRPD of residual solid in solubility analysis,"[3]; water, 24 h",unchanged
same,Solubility,"[3]; water, 24 h",<LOD
same,Purity in stability evaluation,[4]; 0 d,99.14 Area %
same,Solid state stability-14 days,"[4]; 60° C./Closed and 40° C./75% RH (Open), 14 days",physically and chemically stable
same,"change in crystalline form, 7 days",[4]; [11],No change in crystalline form was observed
same,"chemical purity, 7 days",[4]; [11],remained unchanged
same,"solid stability, 7 days",[4]; [11],physicochemically stable
same,Purity in stability evaluation,[4]; 7 d-40° C./75% RH,99.13 Area %
same,XRPD in stability evaluation,[4]; 7 d-40° C./75% RH,unchanged
same,Purity in stability evaluation,[4]; 7 d-60° C./capped,99.14 Area %
same,XRPD in stability evaluation,[4]; 7 d-60° C./capped,unchanged
same,Purity in stability evaluation,[4]; 14 d-40° C./75% RH,99.13 Area %
same,XRPD in stability evaluation,[4]; 14 d-40° C./75% RH,unchanged
same,Purity in stability evaluation,[4]; 14 d-60° C./capped,99.13 Area %
same,XRPD in stability evaluation,[4]; 14 d-60° C./capped,unchanged
same,crystal form after grinding (XRPD),[5],not changed
same,crystallinity after grinding (XRPD),[5],not obviously reduced
same,crystalline form after tableting (XRPD),[6],unchanged
same,crystallinity after tableting (XRPD),[6],slightly reduced
same,new crystalline form by evaporating crystallization (XRPD),[7]; quick and slow evaporation,no new crystalline form was obtained
same,Results (quick volatilization −1 h) Wet sample,"[7]; solvent EtOH, batch 071-A2",amorphous
same,Results (quick volatilization −1 h) Wet sample,"[7]; solvent MeOH, batch 071-A1",free base form 1
same,new crystalline form by cooling crystallization (XRPD),[8],no new crystalline form was obtained
same,solid obtained by cooling crystallization,[8]; rapid cooling (5° C.),dissociated into free base form 1
same,solid obtained by cooling crystallization,[8]; slow cooling to room temperature,into free base form 2
same,new crystalline form by antisolvent precipitation (XRPD),"[9]; from MeOH, THF or DMSO",no new crystalline form was obtained
same,Results Wet sample,"[9]; solvent DMSO (100 mg/mL, 0.2 mL), anti-solvent EA, batch 073-C1",clear solution
same,Results Wet sample,"[9]; solvent DMSO (100 mg/mL, 0.2 mL), anti-solvent IPAC, batch 073-C2",clear solution
same,Results Wet sample,"[9]; solvent DMSO (100 mg/mL, 0.2 mL), anti-solvent MTBE, batch 073-C4",clear solution
same,Results Wet sample,"[9]; solvent MeOH (Saturated, 0.3 mL), anti-solvent MTBE, batch 073-A2",clear solution
same,Results Wet sample,"[9]; solvent THF (25 mg/mL, 0.4 mL), anti-solvent EA, batch 073-B1",clear solution
same,new crystalline form by trituration (XRPD),"[10]; 30 mg/mL suspension, room temperature or 50° C., 3 or 7 days",no new fumarate crystalline form was formed
same,dissociation on trituration,"[10]; in alcohol, water, 2-Me-THF, MTBE and acetone",dissociated into free base crystalline form VII
same,Solubility,physchem; Solubility,< 600 µg/mL
same,Solubility,physchem; solubility,< 5000 µg/mL

# — patent US20260226060A1, “SALTS AND CRYSTALLINE FORMS OF COMPOUND A, METHODS OF PREPARATION, AND USES THEREOF” (SHENZHEN NEWDEL BIOTECH CO., LTD., priority 2023, published 2026)
